Assay results as given in patent publication EP4775577A1, “RAS INHIBITOR” (Tyligand Bioscience (Shanghai) Limited, priority 2023, dated 2025).
Structures can show the parent of a compound that is named as a salt. Where two headings read alike, the source gives them in different places.

Columns and labels:
[1] = tested on: KRAS G12V mutant NCI-H727 cells; assay: Proliferation inhibition of NCI-H727 cells, 3D CellTiter-Glo assay (Method B); assay type: cell-based, human; conditions: Method B, 3D culture with 0.65% methylcellulose, 5 days, CTG, read-out: NCI-H727 IC50/nM
Description: NCI-H727 cells (Nanjing Kebai Biotechnology Co., Ltd., catalog number CBP60182, adherent, culture medium RPMI-1640+10%FBS (GIBCO, Cat#10091-148)) were cultured at 37°C, 5% CO2, and 95% humidity.
3D cell viability assay: Cells in the logarithmic growth phase were harvested and counted using a platelet counter. Cell viability was assessed using the trypan blue exclusion method to ensure a viability of over 90%. The 3D cell culture medium was prepared by adding 1% MC (methylcellulose, Sigma, Cat#M0512) to RPMI-1640 medium and 10% FBS. The cell concentration was adjusted to approximately 25,000 cells/mL using the 3D medium, and the methylcellulose (MC) content was set to 0.65%. Then, 80 µL of cell suspension was added to each 96-well clear, flat-bottomed, black-walled plate (Greiner, Cat# 655096). The cells in the 96-well plates were cultured overnight at 37°C and 5% CO2.
Drug preparation for IC50 assay: A 5-fold drug solution was prepared using culture medium. 20 µL of the drug solution was added to each well of a 96-well plate seeded with cells to achieve a working concentration of up to 10 µM, with a 3× dilution, and 9 concentrations. 2 replicate wells for each drug concentration were set. The cells in the drug-treated 96-well plates were cultured at 37°C and 5% CO2 for additional 5 days, then CTG assay (CellTiter-Glo® Luminescent Cell Viability Assay (Promega, Cat#G7573)) were performed.
The cell plate was equilibrated to room temperature for 30 minutes and the CTG reagent was thawed. 50 µL of CTG solution was added to each well for detection and the plate was shaken on an orbital shaker for 5 minutes to lyse the cells. The cell plate was then placed at room temperature for 25 minutes to stabilize the cryo-luminescence signal, and the cryo-luminescence value was read (EnVision® multi-plate reader, PerkinElmer#2105).
(§1) Data was analyzed using GraphPad Prism software. The dose-response-inhibition equation was used to fit the data to obtain the dose-response curve, and the IC50 value (nM) was calculated accordingly. [formula]

[2] = tested on: KRAS G12D mutant AGS cells; assay: Proliferation inhibition of AGS cells, CellTiter-Glo assay; assay type: cell-based, human; conditions: 3 days, CTG, read-out: AGS IC50/nM
Description: AGS cells (Nanjing Kebai Biotechnology Co., Ltd., catalog number CBP60476, adherent, culture medium (F12K Nutrient Mixture+10% FBS (GIBCO, Cat#10091-148) were cultured at 37°C, 5% CO2, and 95% humidity at a density of 1500 cells/well. Cells in the logarithmic growth phase were harvested and counted using a Countstar automated cell counter based on the classic trypan blue staining method to ensure cell viability was above 90%. The cell concentration was adjusted, and 80 µL of cell suspension was added to each 96-well clear flat-bottomed, black-walled plate (Greiner, Cat# 655090). The cells in the 96-well plates were then cultured at 37°C and 5% CO2.
Drug preparation for IC50 assay: A 5-fold drug solution was prepared using culture medium. 20 µL of the drug solution was added to each well of a 96-well plate seeded with cells to achieve a working concentration of up to 10 µM, with a 3 × dilution, and a total of 9 concentrations. 2 replicate wells for each drug concentration were set. The cells in the drug-treated 96-well plates were cultured at 37°C and 5% CO2 for additional 3 days and then CTG assay were performed.
The cell plate was equilibrated to room temperature for 30 minutes and the CTG reagent (CellTiter-Glo® Luminescent Cell Viability Assay (Promega, Cat# G7573)) was thawed. 50 µL of CTG solution was added to each well and the plate was shaken on an orbital shaker for 2 minutes to lyse the cells. The cell plate was placed at room temperature for 10 minutes to stabilize the cryo-luminescence signal and the cryo-luminescence value was read (EnVision® Multifunctional microplate reader, PerkinElmer #2105).
as §1

| Structure (SMILES) | IC50 ([1]; Homo sapiens, NCI-H727, 120 h) | IC50 ([2]; Homo sapiens, AGS, 72 h) | IC50 [1] | further results |
| --- | --- | --- | --- | --- |
| CN1CC[C@H](C(F)F)[C@](C)(COc2nc(N3CCC[C@@](C)(O)C3)c3cc(C(F)(F)F)c(-c4cccc5sc(N)c(C#N)c45)c(F)c3n2)C1 (atropisomer, axis not shown) [Example 3A, (R)-2-amino-4-(2-(((3S,4S)-4-(difluoromethyl)-1,3-dimethylpiperidine-3-yl)methoxy)-8-fluoro-4-((R)-3-hydroxy-3-methylpiperidine-1-yl)-6-(trifluoromethyl)quinazoline-7-yl)benzo[b]thiophene-3-carbonitrile] | 40.7 nM | 112 nM | – | – |
| CN1CC/C(=C\F)[C@](C)(COc2nc(N3CCC[C@@](C)(O)C3)c3cc(C(F)(F)F)c(-c4cccc5sc(N)c(C#N)c45)c(F)c3n2)C1 (atropisomer, axis not shown) [Example 4A, (R)-2-amino-4-(8-fluoro-2-(((S,E)-4-(fluoromethylene)-1,3-dimethylpiperidine-3-yl)methoxy)-4-((R)-3-hydroxy-3-methylpiperidine-1-yl)-6-(trifluoromethyl)quinazoline-7-yl)benzo[b]thiophene-3-carbonitrile] | 66.9 nM | 148 nM | – | – |
| [2H]C([2H])([2H])N1CC/C(=C\F)[C@](C)(COc2nc(N3Cc4cc(C(=O)N(C)CCOC)nn4CC[C@@H]3C)c3cc(CC)c(-c4c(F)ccc5sc(N)c(C#N)c45)c(F)c3n2)C1 (atropisomer, axis not shown) [Example 267A] | 3.9 nM | 4.4 nM | – | – |
| CN1CC/C(=C\F)[C@](C)(COc2nc(N3CCOC[C@@](C)(O)C3)c3cc(Cl)c(-c4c(F)ccc5sc(N)c(C#N)c45)c(F)c3n2)C1 (atropisomer, axis not shown; (Ra)) [Example 85A, (Ra)-2-amino-4-(6-chloro-8-fluoro-2-(((S,E)-4-(fluoromethylene)-1,3-dimethylpiperidine-3-yl)methoxy)-4-((S)-6-hydroxy-6-methyl-1,4-oxazacycloheptane-4-yl)quinazoline-7-yl)-5-fluorobenzo[b]thiophene-3-carbonitrile formate·formic acid salt] | 17.4 nM | 22.7 nM | – | – |
| CN1CC[C@H](C(F)F)[C@](C)(COc2nc(N3CCOC[C@@](C)(O)C3)c3cc([N+](=O)[O-])c(-c4cccc5sc(N)c(C#N)c45)c(F)c3n2)C1 (atropisomer, axis not shown; (Ra)) [Example 86A] | – | – | 1.9 nM | IC50 [2]: 4.9 nM |
| CN1CC/C(=C\F)[C@](C)(COc2nc(N3CCOC[C@@](C)(O)C3)c3cc([N+](=O)[O-])c(-c4cccc5sc(N)c(C#N)c45)c(F)c3n2)C1 (atropisomer, axis not shown; (Ra)) [Example 87A] | – | – | 3.8 nM | – |
| CN1CC[C@H](C(F)F)[C@](C)(COc2nc(N3CCOC[C@@](C)(O)C3)c3cc(C(F)(F)F)c(-c4c(F)ccc5sc(N)c(C#N)c45)c(F)c3n2)C1 (single isomer, unassigned) [Example 65A] | – | – | < 1.5 nM | – |
| CN1CC[C@H](C(F)F)[C@](C)(COc2nc(N3CCOC[C@@](C)(O)C3)c3cc(C(F)(F)F)c(-c4c(F)ccc5sc(N)c(C#N)c45)c(F)c3n2)C1 (single isomer, unassigned) [Example 65B] | – | – | 39.3 nM | – |
| CN1CC/C(=C\F)[C@](C)(COc2nc(N3CCCn4nc(C(=O)N(C)C)c(Cl)c4C3)c3cc(C4CC4)c(-c4c(F)ccc5sc(N)c(C#N)c45)c(F)c3n2)C1 (single isomer, unassigned) [Example 161B] | – | – | – | IC50 [2]: 33.5 nM |
| [2H]C([2H])([2H])N1CC/C(=C\F)[C@](C)(COc2nc(N3Cc4cc(C(=O)N(C)C)nn4CC[C@@H]3C)c3cc(Cl)c(-c4c(F)ccc5sc(N)c(C#N)c45)c(C)c3n2)C1 (single isomer, unassigned) [Example 177A] | – | < 1.5 nM | – | – |
| [2H]C([2H])([2H])N1CC/C(=C\F)[C@](C)(COc2nc(N3CCCn4nc(C(=O)N(C)C)c(Cl)c4C3)c3cc(Cl)c(-c4c(F)ccc5sc(N)c(C#N)c45)c(C)c3n2)C1 (single isomer, unassigned) [Example 179A] | – | 4.2 nM | – | – |
| [2H]C([2H])([2H])N1CC/C(=C\F)[C@](C)(COc2nc(N3Cc4c(F)c(C(=O)N(C)C)nn4CC[C@@H]3C)c3cc(CC)c(-c4c(F)ccc5sc(N)c(C#N)c45)c(F)c3n2)C1 (single isomer, unassigned) [Example 181A] | – | < 1.5 nM | – | – |
| CN1CC[C@H](C(F)F)[C@](C)(COc2nc(N3CCOC[C@@](C)(O)C3)c3cc([N+](=O)[O-])c(-c4cccc5sc(N)c(C#N)c45)c(F)c3n2)C1 [Example 86] | – | – | 4.5 nM | – |
| [2H]C([2H])([2H])N1CC[C@H](C(F)F)[C@](C)(COc2nc(N3CCOC[C@@](C)(O)C3)c3cc([N+](=O)[O-])c(-c4cccc5sc(N)c(C#N)c45)c(F)c3n2)C1 [Example 86] | – | 8.7 nM | – | – |
| CN1CC/C(=C\F)[C@](C)(COc2nc(N3CCOC[C@@](C)(O)C3)c3cc([N+](=O)[O-])c(-c4cccc5sc(N)c(C#N)c45)c(F)c3n2)C1 [Example 87] | – | – | 9 nM | – |
| [2H]C([2H])([2H])N1CC/C(=C\F)[C@](C)(COc2nc(N3CCOC[C@@](C)(O)C3)c3cc(C#N)c(-c4c(F)ccc5sc(N)c(C#N)c45)c(F)c3n2)C1 [Example 88, 7-(2-Amino-3-cyano-5-fluorobenzo[b]thiophene-4-yl)-8-fluoro-2-(((S,E)-4-(fluoromethylene)-3-methyl-1-(methyl-d3)piperidine-3-yl)methoxy)-4-((S)-6-hydroxy-6-methyl-1,4-oxazacycloheptane-4-yl)quinazoline-6-carbonitrile] | 23.3 nM | – | – | – |
| [2H]C([2H])([2H])N1CC[C@H](C(F)F)[C@](C)(COc2nc(N3CCOC[C@@](C)(O)C3)c3cc(C#N)c(-c4c(F)ccc5sc(N)c(C#N)c45)c(F)c3n2)C1 [Example 89, 7-(2-Amino-3-cyano-5-fluorobenzo[b]thiophene-4-yl)-2-(((3S,4S)-4-(difluoromethyl)-3-methyl-1-(methyl-d3)piperidine-3-yl)methoxy)-8-fluoro-4-((S)-6-hydroxy-6-methyl-1,4-oxazacycloheptane-4-yl)quinazoline-6-carbonitrile] | 12.4 nM | – | – | – |
| [2H]C([2H])([2H])N1CC/C(=C\F)[C@](C)(COc2nc(N3CCOC[C@@](C)(O)C3)c3cc(C#N)c(-c4cccc5sc(N)c(C#N)c45)c(F)c3n2)C1 [Example 90, 7-(2-Amino-3-cyanobenzo[b]thiophene-4-yl)-8-fluoro-2-(((S,E)-4-(fluoromethylene)-3-methyl-1-(methyl-d3)piperidine-3-yl)methoxy)-4-((S)-6-hydroxy-6-methyl-1,4-oxazacycloheptane-4-yl)quinazoline-6-carbonitrile] | 58.3 nM | – | – | – |
| CN1CC/C(=C\F)[C@](C)(COc2nc(N3CCCn4nc(C(=O)N(C)C)nc4C3)c3cc(C(F)(F)F)c(-c4cccc5sc(N)c(C#N)c45)c(F)c3n2)C1 [Example 101] | – | 100 nM | – | – |
| CN1CC/C(=C\F)[C@](C)(COc2nc3c(F)c(-c4cccc5sc(N)c(C#N)c45)c(Cl)cc3c(N3CCCn4nc(C(=O)N(C)C)cc4C3)c2C#N)C1 [Example 102] | 4270 nM | – | – | – |
| CN1CC/C(=C\F)[C@](C)(COc2nc(N3CCCn4nc(C(=O)N(C)C)cc4C3)c3cc(C#N)c(-c4cccc5sc(N)c(C#N)c45)c(F)c3n2)C1 [Example 103] | – | 301 nM | – | – |
| CN1CCC(=CF)C(C)(COc2nc(N3CCC(C#N)C(O)C3)c3cc(C(F)(F)F)c(-c4cccc5sc(N)c(C#N)c45)c(F)c3n2)C1 (stereo not drawn) [Example 155] | – | – | 21 nM | – |
